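48-hour exposure; five concentrations; linearly interpolated endpoints. TGI is the concentration that stops growth completely.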
Assays:
Assay in all cases: NCI-60 cell line screen, 48 h
[1] = test system: KM12 colon
[2] = test system: K-562 leukemia
[3] = test system: RPMI-8226 leukemia
[4] = test system: HL-60(TB) leukemia
[5] = test system: HOP-92 NSCLC
[6] = test system: BT-549 breast
[7] = test system: PC-3 prostate
[8] = test system: SF-268 CNS
[9] = test system: SK-MEL-5 melanoma
[10] = test system: OVCAR-4 ovarian
[11] = test system: EKVX NSCLC
[12] = test system: HOP-62 NSCLC
[13] = test system: SK-MEL-2 melanoma
[14] = test system: SN12C renal
[15] = test system: SNB-19 CNS
[16] = test system: HT29 colon
[17] = test system: A549 NSCLC
[18] = test system: MDA-MB-231 breast
[19] = test system: ACHN renal
[20] = test system: NCI/ADR-RES ovarian

Structure (SMILES)	TGI [1]	TGI [2]	TGI [3]	TGI [4]	TGI [5]	TGI [6]	TGI [7]	TGI [8]	TGI [9]	TGI [10]	TGI [11]	TGI [12]	TGI [13]	TGI [14]	TGI [15]	TGI [16]	TGI [17]	TGI [18]	TGI [19]	TGI [20]
CCCCCCCCCCCC(=O)OCC(C[As](=O)(O)O)OC(=O)CCCCCCCCCCC (centres undefined)	21.6 µM	> 38.9 µM	> 62 µM	> 25 µM	4.29 µM	23.3 µM	9.52 µM	> 34.1 µM	3.64 µM	33.3 µM	21 µM	78 µM	12.1 µM	8.27 µM	9.38 µM	20.2 µM	25.8 µM	16 µM	5.04 µM	44.5 µM
CCOC(=O)Cc1nc2cc(F)c(F)cc2[nH]c1=O	> 100 µM	> 100 µM	> 100 µM	> 100 µM	> 100 µM	> 100 µM	> 100 µM	> 100 µM	> 100 µM	> 100 µM	> 100 µM	> 100 µM	> 100 µM	> 100 µM	> 100 µM	> 100 µM	> 100 µM	> 100 µM	> 100 µM	> 100 µM
CCOC(=O)c1c(N2CCOCC2)[nH]c(=O)c(C(c2c(Cl)cccc2Cl)c2c(O)c(C(=O)OCC)c(N3CCOCC3)[nH]c2=O)c1O	33.2 µM	6.55 µM	5.27 µM	4.37 µM	8.56 µM	19.6 µM	29.1 µM	22.2 µM	16.1 µM	24.1 µM	32.9 µM	30.4 µM	16.2 µM	11.4 µM	21.1 µM	12.9 µM	32.5 µM	24.9 µM	13 µM	33.8 µM
CC(=O)[C@@H](C)C(=O)N1C(=O)OC[C@@]12[C@@H]1CC[C@@H](C1)C2(C)C	> 100 µM	> 100 µM	> 100 µM	> 100 µM	> 100 µM	> 100 µM	> 100 µM		> 100 µM	> 100 µM	> 100 µM	> 100 µM	> 100 µM	> 100 µM	> 100 µM	> 100 µM	> 100 µM	> 100 µM	> 100 µM	> 100 µM
Cc1ccc2c3c1O[C@H]1c4[nH]c5ccccc5c4C[C@@]4(O)[C@@H](C2)N(CC2CC2)CC[C@]314	32.5 µM	61.1 µM	29.4 µM	22.4 µM	27.5 µM	35.7 µM	24.9 µM	30.1 µM	27.8 µM	17.8 µM	32.9 µM	33.3 µM	31.6 µM	29.1 µM	32.2 µM	18.7 µM	29.7 µM	35.6 µM	30.9 µM	42.2 µM
Nc1nc(-[n+]2ccc(-c3ccncc3)cc2)nc(Cl)c1Cl	> 100 µM	91.7 µM	> 100 µM	38.9 µM	48 µM	> 100 µM	> 100 µM	34.6 µM	> 100 µM	> 100 µM	> 100 µM	> 100 µM	> 100 µM	42.5 µM	> 100 µM	> 100 µM	> 100 µM	95.9 µM	> 100 µM	> 100 µM
CO/C=C(/C(=O)OC)c1ccccc1COc1cccc(C(F)(F)F)c1	> 100 µM	> 100 µM	7.31 µM	3.99 µM	50.5 µM	> 100 µM	> 100 µM	> 100 µM	14.5 µM	> 100 µM	> 100 µM	> 100 µM	34.2 µM	> 100 µM	> 100 µM	> 100 µM	> 100 µM	68.8 µM	> 100 µM	> 100 µM
Cc1ccc(S(=O)(=O)N/N=C2/CCCOC2)cc1	> 100 µM	> 100 µM	> 100 µM	> 100 µM	> 100 µM	> 100 µM	> 100 µM	> 100 µM	> 100 µM	> 100 µM	> 100 µM	> 100 µM	> 100 µM	> 100 µM	> 100 µM	> 100 µM	> 100 µM	> 100 µM	> 100 µM	> 100 µM

From PubChem BioAssay (NCI)
